Measured values from patent US8846746B2, “Pyrazole compound and pharmaceutical use thereof” (Japan Tobacco Inc., priority 2011, dated 2014).

The molecules below were run against human SGLT1 (Homo sapiens (Human), UniProt P13866) (assay: SGLT1 inhibitory activity: 14C-AMG uptake into CHO-K1 cell line stably expressing human SGLT1). Details: 14C-AMG uptake, CHO-K1 cells expressing human SGLT1.
human SGLT1, sequence (P13866 whole entry): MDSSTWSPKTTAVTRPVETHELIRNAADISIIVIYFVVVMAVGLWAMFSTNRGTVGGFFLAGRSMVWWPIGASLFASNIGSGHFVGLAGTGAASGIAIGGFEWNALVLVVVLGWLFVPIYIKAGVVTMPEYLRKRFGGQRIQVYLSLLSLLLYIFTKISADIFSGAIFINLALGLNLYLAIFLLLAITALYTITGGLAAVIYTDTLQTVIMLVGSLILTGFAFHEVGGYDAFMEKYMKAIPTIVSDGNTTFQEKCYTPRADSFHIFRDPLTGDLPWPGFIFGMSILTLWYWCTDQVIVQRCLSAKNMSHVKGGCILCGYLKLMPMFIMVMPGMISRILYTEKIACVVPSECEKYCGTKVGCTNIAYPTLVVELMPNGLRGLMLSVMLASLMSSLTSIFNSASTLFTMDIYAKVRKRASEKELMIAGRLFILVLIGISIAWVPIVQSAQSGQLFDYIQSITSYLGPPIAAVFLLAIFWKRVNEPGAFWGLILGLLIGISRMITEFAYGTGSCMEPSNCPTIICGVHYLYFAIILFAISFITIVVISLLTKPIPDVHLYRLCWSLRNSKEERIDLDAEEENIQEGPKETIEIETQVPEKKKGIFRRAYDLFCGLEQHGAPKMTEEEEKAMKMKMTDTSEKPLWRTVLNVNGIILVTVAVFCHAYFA
Type: cell-based
How it was run: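 Human SGLT1 was stably expressed in CHO-K1 cells. Cells were first held 20 min in sodium-free buffer, then exposed to compound in Na(+)/BSA buffer with tracer and AMG (2 mM in the added solution).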
For `CCC(F)(F)c1cccc(-c2cc(NC(=O)[C@H]3CNC(=O)[C@@H]3C)nn2-c2cccc(F)c2)c1` [Example 170], the IC50 was 3 nM.
`CCC(F)(F)c1cccc(-c2cc(NC(=O)[C@H]3CNC(=O)[C@@H]3C)nn2-c2ccc(F)cc2)c1` [Example 172] gave an IC50 of 5.5 nM.
`CCC(F)(F)c1cccc(-c2cc(NC(=O)[C@H]3CNC(=O)C3)nn2-c2ccc(F)cc2)c1` [Example 173] was tested, and the IC50 was 13 nM.
`CCC(F)(F)c1cccc(-c2cc(NC(=O)[C@H]3CNC(=O)[C@@H]3C)nn2CCOC(C)C)c1` [Example 176] was tested, and the IC50 was 55 nM.
`CC(C)(C)c1cccc(-c2cc(NC(=O)[C@H]3CNC(=O)C3)nn2C2CCOCC2)c1` [Example 177] was tested, and the IC50 was 56 nM.
With `C[C@H]1C(=O)NC[C@@H]1C(=O)Nc1cc(-c2cccc(C(C)(C)C)c2)n(C2CCOCC2)n1` [Example 178] the IC50 was 14 nM.
For `CCC(F)(F)c1cccc(-c2cc(NC(=O)[C@H]3CNC(=O)[C@@H]3C)nn2C2CCOCC2)c1` [Example 179], the IC50 was 19 nM.
`CCC(F)(F)c1cccc(-c2cc(NC(=O)[C@H]3CNC(=O)C3)nn2-c2cccc(F)c2)c1` [Example 181] was tested, and the IC50 was 4.3 nM.
With `CCC(F)(F)c1cccc(-c2cc(NC(=O)[C@H]3CNC(=O)C3)nn2-c2ccccc2F)c1` [Example 182] the IC50 was 3.8 nM.
In the case of `O=C1C[C@@H](C(=O)Nc2cc(-c3cccc(OC(F)(F)F)c3)n(-c3ccc(F)cc3F)n2)CN1` [Example 183], the IC50 is reported as 20100 nM.
For `O=C1C[C@@H](C(=O)Nc2cc(-c3cccc(OC(F)(F)F)c3)n(C3CCOCC3)n2)CN1` [Example 187], the IC50 was 42 nM.
`C[C@H]1C(=O)NC[C@@H]1C(=O)Nc1cc(-c2cccc(OC(F)(F)F)c2)n(C2CCOCC2)n1` [Example 188] gave an IC50 of 23 nM.
For `O=C1C[C@@H](C(=O)Nc2cc(-c3cccc(OC(F)(F)F)c3)n(CCC(F)(F)F)n2)CN1` [Example 190], the IC50 was 130 nM.
In the case of `C[C@H]1C(=O)NC[C@@H]1C(=O)Nc1cc(-c2cccc(OC(F)(F)F)c2)n(CCC(F)(F)F)n1` [Example 191], the IC50 is reported as 54 nM.
Work on `C[C@H]1C(=O)NC[C@@H]1C(=O)Nc1cc(-c2cccc(OC(F)(F)F)c2)n(-c2ccccc2Cl)n1` [Example 193] yielded an IC50 of 1.3 nM.
`C[C@H]1C(=O)NC[C@@H]1C(=O)Nc1cc(-c2cccc(C(C)(C)C)c2)n(-c2ccccc2Cl)n1` [Example 194] gave an IC50 of 0.7 nM.
For `Cc1cc(F)ccc1-n1nc(NC(=O)[C@H]2CNC(=O)C2)cc1-c1cccc(OC(F)(F)F)c1` [Example 195], the IC50 was 8.3 nM.
`Cc1cc(F)ccc1-n1nc(NC(=O)[C@H]2CNC(=O)[C@@H]2C)cc1-c1cccc(OC(F)(F)F)c1` [Example 196] was tested, and the IC50 was 4.8 nM.
Molecule `O=C1C[C@@H](C(=O)Nc2cc(-c3cccc(OC(F)(F)F)c3)n(C3CCC(F)(F)CC3)n2)CN1` [Example 197] has an IC50 of 180 nM.
`C[C@H]1C(=O)NC[C@@H]1C(=O)Nc1cc(-c2cccc(OC(F)(F)F)c2)n(C2CCC(F)(F)CC2)n1` [Example 198] showed an IC50 of 67 nM.
For `C[C@H]1C(=O)NC[C@@H]1C(=O)Nc1cc(-c2cccc(OC(F)(F)F)c2)n(CC2CCOCC2)n1` [Example 200], the IC50 was 120 nM.
In the case of `O=C1C[C@@H](C(=O)Nc2cc(-c3cccc(OC(F)(F)F)c3)n(CCC3CCOCC3)n2)CN1` [Example 201], the IC50 is reported as 93 nM.

Same assay, conditions: CHO-K1, at 0.03 uM
In the case of `C[C@H]1C(=O)NC[C@@H]1C(=O)Nc1cc(-c2cccc(OC(F)(F)F)c2)n(-c2ccc(F)cc2F)n1` [Example 184], the inhibition at 0.03 µM is reported as 3%.

Same assay, conditions: CHO-K1, at 0.1 uM
Molecule `CCC(F)(F)c1cccc(-c2cc(NC(=O)[C@H]3CNC(=O)C3)nn2CCOC(C)C)c1` [Example 175] has an inhibition at 0.1 µM of 40%.

Same assay, conditions: CHO-K1, at 0.3 uM
Molecule `C[C@H]1C(=O)NC[C@@H]1C(=O)Nc1cc(-c2cccc(OC(F)(F)F)c2)n(-c2ccc(Cl)c(F)c2)n1` [Example 180] has an inhibition at 0.3 µM of -10%.
In the case of `O=C1C[C@@H](C(=O)Nc2cc(-c3cccc(OC(F)(F)F)c3)n(-c3ccc(F)cc3Cl)n2)CN1` [Example 192], the inhibition at 0.3 µM is reported as 6%.
Molecule `O=C1C[C@@H](C(=O)Nc2cc(-c3cccc(OC(F)(F)F)c3)n(CC3CCOCC3)n2)CN1` [Example 199] has an inhibition at 0.3 µM of 40%.

Same assay, conditions: CHO-K1, at 1 uM
Molecule `O=C1C[C@@H](C(=O)Nc2cc(-c3cccc(OC(F)(F)F)c3)n(-c3ccc(Cl)c(F)c3)n2)CN1` [Example 174] has an inhibition at 1 µM of 9%.
